The subject of series [1] is Human umbilical endothelial cells (HUVEC). Nature of the series: Inhibition of VEGF165-stimulated HUVEC proliferation (3H-thymidine incorporation). It is filed as cell-based. Particulars: HUVEC starved 16 hours, stimulated with 5 ng/ml VEGF165 and 10 μg/ml heparin, 76 hours incubation, then 16 hours 3H-thymidine. The protocol: Human umbilical endothelial cells (HUVEC) were cultivated in IMDM (Gibco BRL), supplemented with 10% foetal calf serum (FBS) (Sigma), 50 μM of β-mercaptoethanol (Fluka), standard antibiotics, 15 μg/ml of endothelial cell growth factor (ECGS, Collaborative Biomedical Products) and 100 μg/ml of heparin (Sigma) on gelatine-coated culture dishes (0.2% gelatine, Sigma) at 37° C., under 5% CO2 in a water-saturated atmosphere.
In order to investigate the inhibitory activity of the compounds according to the invention the cells were starved for 16 hours, i.e. kept in culture medium without growth factors (ECGS+heparin). The cells were detached from the culture dishes using trypsin/EDTA and washed once in serumontaining medium. Then they were seeded out in amounts of 2.5×10^3 cells per well.
The proliferation of the cells was stimulated with 5 ng/ml of VEGF165 (vascular endothelial growth factor; H. Weich, GBF Braunschweig) and 10 μg/ml of heparin. As a control, 6 wells in each dish were not stimulated.
The compounds according to the invention were dissolved in 100% dimethylsulphoxide and added to the cultures in various dilutions in triplicate, the maximum dimethyl sulphoxide concentration being 0.3%.
The cells were incubated for 76 hours at 37° C., then for a further 16 hours ^3H-thymidine (0.1 μCi/well, Amersham) was added in order to determine the DNA synthesis. Then the radioactively labelled cells were immnobilised on filter mats and the radioactivity incorporated was measured in a β-counter. In order to determine the inhibitory activity of the compounds according to the invention the mean value of the non-stimulated cells was subtracted from the mean value of the factor-stimulated cells (in the presence or absence of the compounds according to the invention).
The relative cell proliferation was calculated as a percentage of the control (HUVEC without inhibitor) and the concentration of active substance which inhibits the proliferation of the cells by 50% (IC50) was determined.
For orientation: Uptake of a labelled nucleoside into DNA is a usual measure of proliferation.

Each structure is given as a SMILES string. pIC50: −log10 of the molar value.

Consider `CCOC(=O)c1ccc2c(c1)NC(=O)/C2=C(\Nc1ccc(CN2CCCCC2)cc1)c1ccccc1` [(a), 3-Z-[1-(4-(piperidin-1-yl-methyl)-anilino)-1-phenyl-methylene]-6-ethoxycarbonyl-2-indolinone], for which the pIC50 in series [1] was 7.40.

For the compound `NC(=O)c1ccc2c(c1)NC(=O)/C2=C(\Nc1ccc(CN2CCCCC2)cc1)c1ccccc1` [(b), 3-Z-[1-(4-(piperidin-1-yl-methyl)-anilino)-1-phenyl-methylene]-6-carbamoyl-2-indolinone], the negative-log IC50 (pIC50) in series [1] was 6.46.

On to `COC(=O)c1ccc2c(c1)NC(=O)/C2=C(\Nc1ccc(CN2CCCCC2)cc1)c1ccccc1` [(c), 3-Z-[1-(4-(piperidin-1-yl-methyl)-anilino)-1-phenyl-methylene]-6-methoxycarbonyl-2-indolinone], for which the pIC50 in series [1] is 8.00.

With `CCOC(=O)c1ccc2c(c1)NC(=O)/C2=C(\Nc1ccc(CN(C)C)cc1)c1ccccc1` [(d), 3-Z-[1-(4-(dimethylaminomethyl)-anilino)-1-phenyl-methylene]-6-ethoxycarbonyl-2-indolinone], the pIC50 in series [1] is 7.70.

On to `CCOC(=O)c1ccc2c(c1)NC(=O)/C2=C(\Nc1ccc(CN2C(C)CCCC2C)cc1)c1ccccc1` (centres unmarked) [(e), 3-Z-[1-(4-((2,6-dimethyl-piperidin-1-yl)-methyl)-anilino)-1-phenyl-methylene]-6-ethoxycarbonyl-2-indolinone], for which the pIC50 in series [1] was 7.30.

Take `CCOC(=O)c1ccc2c(c1)NC(=O)/C2=C(\Nc1ccc(N(CCN(C)C)C(C)=O)cc1)c1ccccc1` [(f), 3-Z-[1-(4-(N-(2-dimethylamino-ethyl)-N-acetyl-amino)-anilino)-1-phenyl-methylene]-6-ethoxycarbonyl-2-indolinone]: the pIC50 in series [1] is 8.00.

In the case of `CCOC(=O)c1ccc2c(c1)NC(=O)/C2=C(\Nc1ccc(N(CCCN(C)C)C(C)=O)cc1)c1ccccc1` [(g), 3-Z-[1-(4-(N-(3-dimethylamino-propyl)-N-acetyl-amino)-anilino)-1-phenyl-methylene]-6-ethoxycarbonyl-2-indolinone], in series [1], the pIC50 is 8.52.

Take `CCOC(=O)c1ccc2c(c1)NC(=O)/C2=C(\Nc1ccc(N(CCN(C)C)S(C)(=O)=O)cc1)c1ccccc1` [(h), 3-Z-[1-(4-(N-(2-dimethylamino-ethyl)-N-methylsulphonyl-amino)-anilino)-1-phenyl-methylene]-6-ethoxycarbonyl-2-indolinone]: the pIC50 in series [1] is 8.00.

Regarding `COC(=O)c1ccc2c(c1)NC(=O)/C2=C(\Nc1ccc(CN(C)C)cc1)c1ccccc1` [(i), 3-Z-[1-(4-(dimethylaminomethyl)-anilino)-1-phenyl-methylene]-6-methoxycarbonyl-2-indolinone], in series [1], the pIC50 is 7.52.

Take `COC(=O)c1ccc2c(c1)NC(=O)/C2=C(\Nc1ccc(N(CC(=O)N(C)C)C(C)=O)cc1)c1ccccc1` [(j), 3-Z-[1-(4-(N-acetyl-N-dimethylaminocarbonylmethyl-amino)-anilino)-1-phenyl-methylene]-6-methoxycarbonyl-2-indolinone]: the pIC50 in series [1] was 7.70.

With `CCNCc1ccc(N/C(=C2\C(=O)Nc3cc(C(=O)OC)ccc32)c2ccccc2)cc1` [(k), 3-Z-[1-(4-ethylaminomethyl-anilino)-1-phenyl-methylene]-6methoxycarbonyl-2-indolinone], the pIC50 in series [1] was 7.52.

In the case of `COC(=O)c1ccc2c(c1)NC(=O)/C2=C(\Nc1ccc(-c2nccn2C)cc1)c1ccccc1` [(l), 3-Z-[1-(4-(1-methyl-imidazol-2-yl)-anilino)-1-phenyl-methylene]-6-methoxycarbonyl-2-indolinone], in series [1], the pIC50 is 7.00.

In the case of `COC(=O)c1ccc2c(c1)NC(=O)/C2=C(\Nc1ccc(N(C)C(=O)CN(C)C)cc1)c1ccccc1` [(m), 3-Z-[1-(4-(N-dimethylaminomethylcarbonyl-N-methyl-amino)-anilino)-1-phenyl-methylene]-6-methoxycarbonyl-2-indolinone], the pIC50 in series [1] is 7.70.

With `COC(=O)c1ccc2c(c1)NC(=O)/C2=C(\Nc1ccc(N(CCN(C)C)S(C)(=O)=O)cc1)c1ccccc1` [(n), 3-Z-[1-(4-(N-(2-dimethylamino-ethyl)-N-methylsulphonyl-amino)-anilino)-1-phenyl-methylene]-6-methoxycarbonyl-2-indolinone], the pIC50 in series [1] was 7.70.

On to `COC(=O)c1ccc2c(c1)NC(=O)/C2=C(\Nc1ccc(N(CCCN(C)C)S(C)(=O)=O)cc1)c1ccccc1` [(o), 3-Z-[1-(4-(N-(3-dimethylamino-propyl)-N-methylsulphonyl-amino)-anilino)-1-phenyl-methylene]-6methoxycarbonyl-2-indolinone], for which the negative-log IC50 (pIC50) in series [1] is 8.00.

On to `COC(=O)c1ccc2c(c1)NC(=O)/C2=C(\Nc1ccc(N(CC(=O)N(C)C)S(C)(=O)=O)cc1)c1ccccc1` [(p), 3-Z-[1-(4-(N-dimethylaminocarbonylmethyl-N-methylsulphonyl-amino)-anilino)-1-phenyl-methylene]-6-methoxycarbonyl-2-indolinone], for which, in series [1], the pIC50 is 7.70.

With `COC(=O)c1ccc2c(c1)NC(=O)/C2=C(\Nc1ccc(N(C)C(=O)CCN(C)C)cc1)c1ccccc1` [(q), 3-Z-[1-(4-(N-((2-dimethylamino-ethyl)-carbonyl)-N-methyl-amino)-anilino)-1-phenyl-methylene]-6-methoxycarbonyl-2-indolinone], the pIC50 in series [1] was 7.70.

Turning to `COC(=O)c1ccc2c(c1)NC(=O)/C2=C(\Nc1ccc(N(CCN(C)C)C(C)=O)cc1)c1ccccc1` [(r), 3-Z-[1-(4-(N-(2-dimethylamino-ethyl)-N-acetyl-amino)-anilino)-1-phenyl-methylene]-6-methoxycarbonyl-2-indolinone], in series [1], the pIC50 is 8.00.

In the case of `CNCc1ccc(N/C(=C2\C(=O)Nc3cc(C(=O)OC)ccc32)c2ccccc2)cc1` [(s), 3-Z-[1-(4methylaminomethyl-anilino)-1-phenyl-methylene]-6-methoxycarbonyl-2-indolinone], in series [1], the pIC50 was 7.40.

As for `COC(=O)c1ccc2c(c1)NC(=O)/C2=C(\Nc1ccc(Cc2ccccc2)cc1)c1ccccc1` [Example 3(60), 3-Z-[1-(4-benzyl-anilino)-1-phenyl-methylene]-6-methoxycarbonyl-2-indolinone], the melting point is 224 °C.

In general, pIC50 refers to the negative decadic logarithm of the IC50, by convention in mol/L. In general, melting point refers to the temperature, or range, at which the solid turns liquid.

Source of the values: US6762180B1, “Substituted indolines which inhibit receptor tyrosine kinases” (Boehringer Ingelheim Pharma KG, priority 1999, dated 2004).
